Legend:
Type in all cases: cell-based, mouse
[1] = tested on: β-galactosidase in CMV-LacZ C2C12 myotubes; assay: CMV-LacZ secondary screen in C2C12 myotubes (β-Gal stabilizing assay); conditions: for CMV-LACZ in Myotubes, signal relative to DMSO: C2C12 CMV-LacZ myotubes, fold relative to DMSO; for CMV-LACZ in Myotubes (β-galactosidase activity relative to DMSO): CMV-LacZ C2C12 myotubes, 96-well format
Procedure, shortened: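 Dose-response runs at 0.5–40 μM (0.5, 1, 5, 10, 20, 40 μM; N=2 per point) used a clonal C2C12 line carrying CMV-LacZ. Cells were assayed as myoblasts or as differentiated myotubes, and β-galactosidase levels were read with the FDG fluorogenic substrate.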

[2] = tested on: α7 integrin (LacZ reporter in α7+/LacZ myotubes); assay: Myotube α7 integrin FDG assay (Burkin assay in myotubes, 96-well); conditions: myotubes
[3] = tested on: α7 integrin (LacZ reporter in α7βgal+/− myoblasts); assay: Myoblast α7+/LacZ integrin FDG assay (Burkin assay in myoblasts, 96-well); conditions: α7+/LacZ myoblasts, 96-well

| SMILES | CMV-LACZ in Myotubes, signal relative to DMSO ([1]; 5 uM) | CMV-LACZ in Myotubes, signal relative to DMSO ([1]; 10 uM) | CMV-LACZ in Myotubes, signal relative to DMSO ([1]; 20 uM) | CMV-LACZ in Myotubes, signal relative to DMSO ([1]; 40 uM) | Burkin Assay in Myotubes (signal relative to DMSO) ([2]; 0.5 uM) | Burkin Assay in Myotubes (signal relative to DMSO) ([2]; 1 uM) | Burkin Assay in Myotubes (signal relative to DMSO) ([2]; 5 uM) | Burkin Assay in Myotubes (signal relative to DMSO) ([2]; 10 uM) | Burkin Assay in Myotubes (signal relative to DMSO) ([2]; 20 uM) | Burkin Assay in Myotubes (signal relative to DMSO) ([2]; 40 uM) | Burkin Assay in Myoblasts, value relative to DMSO ([3]; 0.5 uM) | Burkin Assay in Myoblasts, value relative to DMSO ([3]; 1 uM) | Burkin Assay in Myoblasts, value relative to DMSO ([3]; 5 uM) | Burkin Assay in Myoblasts, value relative to DMSO ([3]; 10 uM) | Burkin Assay in Myoblasts, value relative to DMSO ([3]; 20 uM) | Burkin Assay in Myoblasts, value relative to DMSO ([3]; 40 uM) | CMV-LACZ in Myotubes (β-galactosidase activity relative to DMSO) ([1]; 5 uM) | CMV-LACZ in Myotubes (β-galactosidase activity relative to DMSO) ([1]; 10 uM) | CMV-LACZ in Myotubes (β-galactosidase activity relative to DMSO) ([1]; 20 uM) | CMV-LACZ in Myotubes (β-galactosidase activity relative to DMSO) ([1]; 40 uM) | other results |
| --- | --- | --- | --- | --- | --- | --- | --- | --- | --- | --- | --- | --- | --- | --- | --- | --- | --- | --- | --- | --- | --- |
| COc1cc(Cl)cc(CN2CCC(CCC(=O)NC3CC3)CC2)c1OC [MLS001162872-01] | 0.7855 | 1.084 | 1.061 | 0.9794 | 1.13 | 1.051 | 0.8369 | 1.031 | 1.034 | 0.8876 | 0.9547 | 0.949 | 0.9025 | 0.904 | 0.783 | 0.7773 | – | – | – | – | – |
| CCCCS(=O)(=O)N1CCCC(C(=O)NCCc2ccccc2)C1 (centres unmarked) [MLS001163121-01] | – | – | – | – | 1.052 | 0.9895 | 0.9395 | 1.173 | 1.07 | 1.09 | 1.049 | 1.012 | 0.9488 | 0.9907 | 0.8074 | 0.9157 | 0.8506 | 0.8294 | 0.8781 | 0.9211 | – |
| COc1ccccc1-c1coc2c(CN3C(C)CCCC3C)c(O)ccc2c1=O (centres unmarked) [MLS001163140-01] | 1.029 | 1.061 | 0.9159 | 1.19 | 0.9236 | 1.035 | 0.9282 | 1.1264 | 0.9651 | 1.011 | 1.019 | 1.217 | 0.9966 | 1.098 | 0.935 | 0.9829 | – | – | – | – | – |
| COc1ccc(C(=O)O/N=C(\N)c2cccc(C)c2)cc1OC [MLS001165323-01] | – | – | – | – | 0.9468 | 0.9627 | 1.166 | 1.153 | 1.054 | 1.088 | 0.9704 | 0.9491 | 0.8821 | 0.924 | 0.8743 | 0.4779 | 1.072 | 0.9 | 1.315 | 1.488 | – |
| O=[N+]([O-])c1ccc(N2CCN(c3ccccc3F)CC2)nc1 [MLS001165749-01] | 0.8271 | 0.9284 | 1.024 | 1.038 | – | – | – | – | – | – | – | – | – | – | – | – | – | – | – | – | Burkin Assay in Myotubes, α7 integrin LacZ reporter signal relative to DMSO ([2]; 0.5 uM): 0.9532; Burkin Assay in Myotubes, α7 integrin LacZ reporter signal relative to DMSO ([2]; 1 uM): 1.078; Burkin Assay in Myotubes, α7 integrin LacZ reporter signal relative to DMSO ([2]; 5 uM): 1.1624; Burkin Assay in Myotubes, α7 integrin LacZ reporter signal relative to DMSO ([2]; 10 uM): 1.122; Burkin Assay in Myotubes, α7 integrin LacZ reporter signal relative to DMSO ([2]; 20 uM): 0.7808; Burkin Assay in Myotubes, α7 integrin LacZ reporter signal relative to DMSO ([2]; 40 uM): 0.7342; Burkin Assay in Myoblasts, signal relative to DMSO ([3]; 0.5 uM): 1.048; Burkin Assay in Myoblasts, signal relative to DMSO ([3]; 1 uM): 1.057; Burkin Assay in Myoblasts, signal relative to DMSO ([3]; 5 uM): 1.034; Burkin Assay in Myoblasts, signal relative to DMSO ([3]; 10 uM): 0.9342; Burkin Assay in Myoblasts, signal relative to DMSO ([3]; 20 uM): 0.9628; Burkin Assay in Myoblasts, signal relative to DMSO ([3]; 40 uM): 0.7711 |

From US9980943B2, “Methods of treating muscular dystrophy” (BOARD OF REGENTS OF THE NEVADA SYSTEM OF HIGHER EDUCATION, …, priority 2013, dated 2018)
